# Reference: patent US6864061B2, “Method for screening compounds for anti-inflammatory activity” (GeneTrol Biotherapeutics, Inc., priority 2000, dated 2005)
# How the values were obtained:
# Format in all cases: cell-based, human
# [1] = test system: PKR-overexpressing Namalwa cells (Nam-PKR), IFN-alpha production; assay: Dose-response inhibition of IFN-alpha production in PMA and poly r(I):poly r(C) treated PKR-overexpressing Namalwa cells; details: FIG. 3
# [2] = test system: PKR-overexpressing Namalwa cells (Nam-PKR), TNF-beta production; assay: TNF-beta production in PMA/poly I:C-induced PKR-overexpressing Namalwa cells (ELISA); details: 1 mM 2-AP; 20 mM PMA priming 20 hr, 200 μg/ml poly I:C induction 3 days; FIG. 2B
# Method: (§1) PKR-transfected Namalwa cells (Nam-PKR) were cultured at 2.5×10^5 cells/ml in DMEM/F12 medium supplemented with 10% FBS. The cells were treated with 20 mM PMA (priming) for 20 hr followed by treatment with 200 μg/ml poly I:C (induction) for 3 days in the presence of 1 mM 2-aminopurine (2-AP) or in the absence of 2-AP. One set of cells was left untreated (non-induced controls). Following treatment, the culture supernatants were collected and analyzed for TNF-alpha or for TNF-beta by ELISA according to the procedure provided by the supplier of the ELISA kits (R&D Systems). The data for cytokine induction is shown in FIGS. 2A and 2B, which illustrates that the PKR-overexpressing Namalwa cell line produces a high level of proinflammatory cytokine (TNF-alpha) under induction conditions (FIG. 2A) and that the induced levels of TNF-alpha are about 4-fold lower in the presence of the PKR inhibitor, 2-AP.
# [3] = test system: PKR-overexpressing Namalwa cells (Nam-PKR), TNF-alpha production; assay: TNF-alpha production in PMA/poly I:C-induced PKR-overexpressing Namalwa cells (ELISA); details: 1 mM 2-AP, 20 mM PMA priming 20 hr, 200 μg/ml poly I:C induction 3 days, FIG. 2A
# Method: as §1
compound,measurement,setting,value
"Nc1ncc2[nH]cnc2n1 [2-AP, 2-aminopurine]",inhibition of IFN-alpha production at 1 mM (in words),"[1]; 1 mM 2-AP, both experiments",relatively ineffective
same,inhibition of IFN-alpha production at 8 mM (in words),[1]; 8 mM 2-AP,completely inhibited
same,inhibition of IFN-alpha at 5 mM relative to 1 mM,[1]; first experiment,360 fold
same,inhibition of INF-alpha production between 1 mM and 5 mM,[1]; second experiment,5 fold
same,"suppression of TNF-beta production level, with vs without the PKR inhibitor",[2],5 fold
same,"suppression of TNF-alpha production level, with vs without the PKR inhibitor",[3],about 4 fold
same,"suppression of TNF-alpha production level, with vs without the PKR inhibitor",[3]; listed as 2 AP,4 fold
